Counter-ions that a name gives are not always drawn.
Experiments:
A2780 ovarian line = conditions: A2780, 2 hours exposure, 3H-thymidine uptake
Text: (§1) L2987 is a lung adenocarcinoma line obtained from I. Hellstrom (Bristol-Myers Squibb, Seattle, Wash.). The HCT116 colorectal tumor line was obtained from M. Brattain (Baylor Inst., Tex.). A2780 is an ovarian carcinoma line obtained from K. Scanlon (National Cancer Institute).
(§2) Monolayer cultures of human carcinoma cells were harvested using trypsin-EDTA (GIBCO, Grand Island, N.Y.), and the cells counted and resuspended to 1×10^5 /ml in RPMI-1640 containing 10% heat inactivated fetal calf serum (RPMI-10% FCS). Cells (0.1 ml/well) were added to each well of 96 well microtiter plates and incubated overnight at about 37° C. in a humidified atmosphere of 5% CO2. Media was removed from the plates and serial dilutions of DOX or MAb-DOX conjugates added to the walls. All dilutions were performed in quadruplicate. Cells were exposed to DOX or MAb-DOX conjugates for about 2 hours at about 37° C. in a humidified atmosphere of 5% CO2. Plates were then centrifuged (200×g, 5 min.), the drug or conjugate removed, and the cells washed 3× with RPMI-10% FCS. The cells were cultured in RPMI-10% FCS (37° C., 5% CO2) for an additional 48 hours. At this time the cells were pulsed for about 2 hours with 1.0 uCi/well of ^3 H-thymidine (New England Nuclear, Boston, Mass.).

L2987 lung line = conditions: L2987, 2 hours exposure, 3H-thymidine uptake
Text: as §1, §2

HCT116 colon line = assay: In vitro cytotoxicity assay (3H-thymidine uptake), HCT116; assay type: cell-based, human; conditions: antigen-negative HCT116, 2 hours exposure
Protocol: All dilutions were performed in quadruplicate.

[1] = tested on: L2987 human lung carcinoma xenografts; assay: Antitumor activity against established L2987 human tumor xenografts (Test VI); assay type: in vivo, mice
Protocol: The BR96-PEP-DOX conjugate (MR=4.41) was evaluated in vivo (Table 1) against L2987 human lung carcinoma xenografts. Therapy was initiated 14 days after tumor implant when the tumors were approximately 75 mm 3 in size.

cathepsin B = cathepsin B (Bos taurus, UniProt P07688)
Protocol: Bovin spleen cathepsin B (Sigma, EC 3.4.22.1, MW ca. 40,000) (10 units) was dissolved in 1 ml pH 5.0 acetate buffer (25 mM acetate+1 mM EDTA), giving a solution roughly 13.7 M. 6 μl of the enzyme solution was incubated with 12 μl of an activating solution (30 mM dithiothreitol and 15 mM EDTA) for about 15 minutes at room temperature. To this was added 2 ml of pH 5.0 acetate buffer (25 mM acetate with 1 mM EDTA) which had been incubated at about 37° C., followed by 8 μl of a 10 mM solution of Z-Phe-Lys-PABC-DOX in methanol ([Substrate]=40 μM, [Cathepsin B]=ca. 41 nM). The mixture was incubated at about 37° C., and aliquots were periodically removed and injected into the HPLC (C-18 column; 80:20 methanol/pH 2.8 triethylammonium formate (50 mM) buffer; 1 ml/min.; 495 mn detection wavelength).

Bovin spleen cathepsin B = biological target: T1, Bovin spleen cathepsin B (Bos taurus, UniProt P07688); assay: Cathepsin B unmasking of Z-Phe-Lys-PABC-DOX (Test III); assay type: biochemical, bovine; conditions: pH 5.0 acetate buffer, about 37° C., [Substrate]=40 μM, [Cathepsin B]=ca. 41 nM
T1 construct: purchased Sigma; host or cells: bovine spleen

[2] = Human plasma stability of Z-Phe-Lys-PABC-DOX (Test IV); assay type: in vitro ADME; conditions: freshly drawn human plasma
Protocol: Aliquots (50 μl) were periodically removed and diluted with cold methanol (100 μl). The samples were centrifuged and the resulting liquid injected into the HPLC (conditions as above). Enough DOX was added to a separate sample of plasma to give a theoretical release of 1% from the substrate. This was successfully detected using the same methods.

[3] = 0.31 mg/kg DOX, 20 mg/kg BR96 per injection
[4] = 0.63 mg/kg DOX, 39 mg/kg BR96 per injection
[5] = 1.25 mg/kg DOX, 78 mg/kg BR96 per injection
[6] = 2.5 mg/kg DOX, 156 mg/kg BR96 per injection
[7] = 5 mg/kg DOX, 312 mg/kg BR96 per injection
[8] = 10 mg/kg DOX, 625 mg/kg BR96 per injection
[9] = 20 mg/kg DOX, 1250 mg/kg BR96 per injection

Compound: BR96-succinimidocaproyl-phenylalanine-lysine-p-aminovenzyl-carbamoyloxy-doxorubicin [BR96-DOX]
- in vitro potency, fold less potent than unconjugated DOX (A2780 ovarian line): approximately 50 fold
- in vitro potency compared with unconjugated DOX (L2987 lung line): equivalent to that of unconjugated DOX
- in vitro activity (HCT116 colon line): not active
- % Tumor Regressions Complete [1, 3]: 0%
- % Tumor Regressions Partial [1, 3]: 0%
- Log Cell Kill [1, 3]: 0.2
- % Tumor Regressions Complete [1, 4]: 0%
- % Tumor Regressions Partial [1, 4]: 0%
- Log Cell Kill [1, 4]: 0.3
- % Tumor Regressions Complete [1, 5]: 10%
- % Tumor Regressions Partial [1, 5]: 10%
- Log Cell Kill [1, 5]: 2.4
- % Tumor Regressions Complete [1, 6]: 90%
- % Tumor Regressions Partial [1, 6]: 10%
- Log Cell Kill [1, 6]: > 7
- % Tumor Regressions Complete [1, 7]: 100%
- % Tumor Regressions Partial [1, 7]: 0%
- Log Cell Kill [1, 7]: > 7
- % Tumor Regressions Complete [1, 8]: 89%
- % Tumor Regressions Partial [1, 8]: 11%
- Log Cell Kill [1, 8]: > 7
- % Tumor Regressions Complete [1, 9]: 100%
- % Tumor Regressions Partial [1, 9]: 0%
- Log Cell Kill [1, 9]: > 7
- activity and tolerability in vivo ([1]; doses of 1.25-20 mg/kg equivalent DOX/injection): active and tolerated
- activity compared with optimized DOX ([1]; doses of ≥2.5 mg/kg equivalent DOX/injection): significantly more active than optimized DOX
- half-life of release of free DOX (cathepsin B; cathepsin B, pH 5.3, about 37° C., HPLC): about 3 hours
- t1/2 of DOX release by cathepsin B (cathepsin B; pH 5.3 (37° C.)): 3.0 h

Compound: COc1cccc2c1C(=O)c1c(O)c3c(c(O)c1C2=O)C[C@@](O)(C(=O)CO)C[C@@H]3O[C@H]1C[C@H](NC(=O)OCc2ccc(NC(=O)[C@H](CCCCN)NC(=O)[C@H](Cc3ccccc3)NC(=O)OCc3ccccc3)cc2)[C@H](O)[C@H](C)O1 [Z-Phe-Lys-PABC-DOX, Z-Phe-Lys-PABC-DOX-HCl]
- half-life of release of free DOX (Bovin spleen cathepsin B): 7 to 9 min
- free DOX detected in plasma ([2]; over 7 hours): No free DOX was detected
- half-life ([2]; no release over 7 hours): > 350 h

Compound: COc1cccc2c1C(=O)c1c(O)c3c(c(O)c1C2=O)C[C@@](O)(C(=O)CO)C[C@@H]3O[C@H]1C[C@H](N)[C@H](O)[C@H](C)O1 [DOX, Doxorubicin, reference compound]
- in vitro activity (HCT116 colon line): sensitive
- % Tumor Regressions Complete ([1]; DOX 6 mg/kg/injection): 0%
- % Tumor Regressions Partial ([1]; DOX 6 mg/kg/injection): 0%
- Log Cell Kill ([1]; DOX 6 mg/kg/injection): 1.5
- % Tumor Regressions Complete ([1]; DOX 8 mg/kg/injection): 10%
- % Tumor Regressions Partial ([1]; DOX 8 mg/kg/injection): 0%
- Log Cell Kill ([1]; DOX 8 mg/kg/injection): 2.4
